Converted amounts (≈) assume the structure as drawn.

The assay has as its system Mycobacterium tuberculosis. Kind of assay: Antimicrobial activity against Mycobacterium bovis BCG by alamar blue assay. In kind it is functional, variant bovis BCG. In general terms: Alamar Blue is a resazurin reagent that responds to reducing activity.

One may read the MIC90 as an inhibitory concentration at the 90% level, which refers to growth in some studies and to a panel of isolates in others. With `COc1nc2ccc(Br)cc2cc1[C@H](c1ccccc1)[C@@](O)(CCN(C)C)c1cccc2ccccc12` (racemic; 1c), the MIC90 was 7.9 mg/L (≈ 14.2 µM).
Molecule `COc1nc2ccc(Br)cc2cc1[C@H](c1ccccc1)[C@@](O)(CCN(C)C)c1cccc2ccccc12` (racemic; 1d) showed an MIC90 of 1.8 mg/L (≈ 3.24 µM).
The molecule `COc1nc2ccc(Br)cc2cc1[C@@H](c1ccccc1)[C@@](O)(CCN(C)C)c1cccc2ccccc12` (single isomer, unassigned) [BEDAQUILINE] displayed an MIC90 of 1.8 mg/L (≈ 3.24 µM).
On to `COc1nc2ccc(Br)cc2cc1[C@@H](c1ccccc1)[C@@](O)(CCN(C)C)c1cccc2ccccc12` [BEDAQUILINE], for which the MIC90 came out at 0.07 mg/L (≈ 0.126 µM).
Turning to `CO[C@H]1/C=C/O[C@@]2(C)Oc3c(C)c(O)c4c(O)c(c(/C=N/N5CCN(C)CC5)c(O)c4c3C2=O)NC(=O)/C(C)=C\C=C\[C@H](C)[C@H](O)[C@@H](C)[C@@H](O)[C@@H](C)[C@H](OC(C)=O)[C@@H]1C` [RIFAMPIN], for the setting “Mycobacterium tuberculosis, variant bovis BCG, read-out: MIC90”, the MIC90 stood at 0.02 mg/L (≈ 0.0243 µM).

The record behind these values is ChEMBL document CHEMBL1221200, “Diarylquinolines target subunit c of mycobacterial ATP synthase” (Nat Chem Biol, 2007).
